For orientation: IC50 means the concentration at which inhibition is half-maximal. The low end stands for greater potency, the high end for weaker potency.

One test deals with Ba/F3 ERBB2 YVMA (Homo sapiens, UniProt P04626, DUP772-775, cells depend on it). Kind of test: Cell viability assay (CellTiter Glo), Ba/F3 cells engineered to express ERBB2 YVMA. To be noted: Ba/F3 cells expressing human ERBB2 YVMA mutant, 72 hours, read-out: Ba/F3 ERBB2 YVMA, IC50. It is filed as cell-based, mouse. As for the experimental part:
Cells were treated with compounds, and cell viability was measured as a metric of kinase inhibition.
BT-474, A431, MDA-MB-175VII, NCI-H1781, MCF7, and Ba/F3 cell lines were tested. The Ba/F3 cell line is IL-3-dependent mouse cell line derived from the C3H mouse strain. Ba/F3 cell lines were engineered to express human ERBB2 or EGFR kinases, rendering the cells IL-3 independent. The lines were generated via retroviral transduction utilizing a Moloney murine leukemia virus (MMLV) promoter, and constructs are stably integrated into the cell genome. The sequences of the ERBB2 and EGFR genes used were NCBI Reference Sequences NM_004448.3 and NM_005228.3, respectively.
BT-474, A431, MDA-MB-175VII, NCI-H1781 and MCF7 cells were grown in the appropriate growth medium as described in Table B2 below, and harvested at 50-80% confluence. BT-474, A431, MDA-MB-175VII, NCI-H1781 and MCF7 cells were counted and seeded at 2,000 or 1,500 cells per well in 384-well tissue culture plates (see Table B2). Similarly, Ba/F3 cell lines engineered to express EGFR, ERBB2, or ERBB2 mutants were grown, harvested, counted and seeded at 3000 cells per well in 96-well plates. A subset of wells contained media only (low control, “LC”).
Table B1 provides the growth media and number of cells seeded per well for the each cell line.
Compounds were dissolved in DMSO and serially diluted. Serially-diluted compound or a DMSO only control (high control, “HC”) was added to the plated cells in each well. Compounds were tested at concentrations of about 10 μM to 0.51 nM, using three-fold dilutions. The final proportion of DMSO never exceeded 0.1%.
Plates were placed in a 37° C., 5% CO2 incubator for 72 hours. Plates were then removed from the incubator and equilibrated for 15 minutes at room temperature. 40 μl of CellTiter Glo reagent (Promega) was added to measure the relative level of metabolically active cells by quantifying intracellular ATP concentrations. Plates were incubated for 30 minutes at room temperature, and luminescence was measured. Percent viability was normalized to a vehicle control only using the following formula: % viability=100×(Lumsample−LumLC)/(LumHC−LumLC). Graphical curves were fitted using a nonlinear regression model with a sigmoidal dose response.
In general terms: ATP-based viability assays read luminescence as a measure of living cells.

The target in test [1] is T1, phosphorylated ERBB2 (pERBB2) (Homo sapiens, UniProt P04626).
T1 construct: endogenous in cells; host or cells: BT-474
Kind of test: Detection of phosphorylated ERBB2 (pERBB2) by ELISA in BT-474 cells. The format is cell-based. To be noted: four hour incubation. The essentials:
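BT-474 cells were treated with compounds (fourfold dilutions, 10 μM to 0.01 nM final) for 4 h at 37 °C, then lysed. pERBB2 in lysates was quantified by ELISA with an HRP anti-phosphotyrosine detection antibody and TMB read at 450 nm; % relative activity was normalized to no-cell and 0.1% DMSO controls.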
(ELISA stands for enzyme-linked immunosorbent assay.)

Test [2] addresses T2, phosphorylated EGFR (pEGFR) (Homo sapiens, UniProt P00533).
T2 construct: performed to measure phosphorylated EGFR levels using A431 cells (10% FBS); endogenous in cells; host or cells: A431
As to the kind of experiment: Detection of phosphorylated EGFR (pEGFR) by AlphaLISA in EGF-stimulated A431 cells. It is filed as cell-based. To be noted: A431 cells (10% FBS), 4 hours incubation, EGF 30 ng/mL for 10 minutes. The essentials:
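pEGFR was quantified by AlphaLISA in lysates of A431 cells (10% FBS) given a 10 min pulse of EGF at 30 ng/mL after 4 h compound exposure at 37 °C. IC50 came from a four-parameter fit of % inhibition between DMSO and staurosporine controls.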
(In general: Bead proximity is the source of the signal in Alpha formats.)

SMILES strings stand for the structures.

T1 sequence (P04626 23-1255): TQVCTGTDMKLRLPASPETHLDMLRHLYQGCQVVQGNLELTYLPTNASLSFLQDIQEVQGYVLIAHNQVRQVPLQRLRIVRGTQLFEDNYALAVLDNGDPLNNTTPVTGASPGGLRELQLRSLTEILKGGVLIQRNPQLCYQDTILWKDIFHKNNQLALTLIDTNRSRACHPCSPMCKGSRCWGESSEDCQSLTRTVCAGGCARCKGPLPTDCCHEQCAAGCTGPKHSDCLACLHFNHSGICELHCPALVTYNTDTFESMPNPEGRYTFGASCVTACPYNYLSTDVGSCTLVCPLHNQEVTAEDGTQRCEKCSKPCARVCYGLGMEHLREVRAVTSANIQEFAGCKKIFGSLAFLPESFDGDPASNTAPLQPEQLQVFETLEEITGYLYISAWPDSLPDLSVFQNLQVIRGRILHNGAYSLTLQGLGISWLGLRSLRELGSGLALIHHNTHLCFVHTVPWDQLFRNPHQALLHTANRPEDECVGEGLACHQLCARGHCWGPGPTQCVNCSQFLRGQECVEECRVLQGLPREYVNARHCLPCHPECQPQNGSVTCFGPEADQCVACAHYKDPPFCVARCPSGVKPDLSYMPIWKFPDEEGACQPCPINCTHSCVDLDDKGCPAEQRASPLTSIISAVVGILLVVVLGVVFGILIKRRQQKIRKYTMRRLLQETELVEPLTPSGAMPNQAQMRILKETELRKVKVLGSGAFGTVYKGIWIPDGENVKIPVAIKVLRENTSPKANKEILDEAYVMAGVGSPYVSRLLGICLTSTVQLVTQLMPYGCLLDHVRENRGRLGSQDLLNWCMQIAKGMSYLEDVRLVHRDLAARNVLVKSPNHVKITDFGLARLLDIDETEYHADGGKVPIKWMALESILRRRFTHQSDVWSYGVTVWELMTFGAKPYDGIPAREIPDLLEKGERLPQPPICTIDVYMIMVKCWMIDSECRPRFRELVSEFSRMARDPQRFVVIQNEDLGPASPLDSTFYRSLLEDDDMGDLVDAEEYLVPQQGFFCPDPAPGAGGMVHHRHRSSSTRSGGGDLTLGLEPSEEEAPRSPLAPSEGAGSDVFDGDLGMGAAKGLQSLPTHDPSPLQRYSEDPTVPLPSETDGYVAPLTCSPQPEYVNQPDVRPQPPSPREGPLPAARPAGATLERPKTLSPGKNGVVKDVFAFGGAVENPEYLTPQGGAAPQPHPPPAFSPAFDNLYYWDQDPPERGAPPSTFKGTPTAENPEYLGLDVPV
Chain of Ba/F3 ERBB2 YVMA (P04626 with tags, fused parts or gaps DUP772-775): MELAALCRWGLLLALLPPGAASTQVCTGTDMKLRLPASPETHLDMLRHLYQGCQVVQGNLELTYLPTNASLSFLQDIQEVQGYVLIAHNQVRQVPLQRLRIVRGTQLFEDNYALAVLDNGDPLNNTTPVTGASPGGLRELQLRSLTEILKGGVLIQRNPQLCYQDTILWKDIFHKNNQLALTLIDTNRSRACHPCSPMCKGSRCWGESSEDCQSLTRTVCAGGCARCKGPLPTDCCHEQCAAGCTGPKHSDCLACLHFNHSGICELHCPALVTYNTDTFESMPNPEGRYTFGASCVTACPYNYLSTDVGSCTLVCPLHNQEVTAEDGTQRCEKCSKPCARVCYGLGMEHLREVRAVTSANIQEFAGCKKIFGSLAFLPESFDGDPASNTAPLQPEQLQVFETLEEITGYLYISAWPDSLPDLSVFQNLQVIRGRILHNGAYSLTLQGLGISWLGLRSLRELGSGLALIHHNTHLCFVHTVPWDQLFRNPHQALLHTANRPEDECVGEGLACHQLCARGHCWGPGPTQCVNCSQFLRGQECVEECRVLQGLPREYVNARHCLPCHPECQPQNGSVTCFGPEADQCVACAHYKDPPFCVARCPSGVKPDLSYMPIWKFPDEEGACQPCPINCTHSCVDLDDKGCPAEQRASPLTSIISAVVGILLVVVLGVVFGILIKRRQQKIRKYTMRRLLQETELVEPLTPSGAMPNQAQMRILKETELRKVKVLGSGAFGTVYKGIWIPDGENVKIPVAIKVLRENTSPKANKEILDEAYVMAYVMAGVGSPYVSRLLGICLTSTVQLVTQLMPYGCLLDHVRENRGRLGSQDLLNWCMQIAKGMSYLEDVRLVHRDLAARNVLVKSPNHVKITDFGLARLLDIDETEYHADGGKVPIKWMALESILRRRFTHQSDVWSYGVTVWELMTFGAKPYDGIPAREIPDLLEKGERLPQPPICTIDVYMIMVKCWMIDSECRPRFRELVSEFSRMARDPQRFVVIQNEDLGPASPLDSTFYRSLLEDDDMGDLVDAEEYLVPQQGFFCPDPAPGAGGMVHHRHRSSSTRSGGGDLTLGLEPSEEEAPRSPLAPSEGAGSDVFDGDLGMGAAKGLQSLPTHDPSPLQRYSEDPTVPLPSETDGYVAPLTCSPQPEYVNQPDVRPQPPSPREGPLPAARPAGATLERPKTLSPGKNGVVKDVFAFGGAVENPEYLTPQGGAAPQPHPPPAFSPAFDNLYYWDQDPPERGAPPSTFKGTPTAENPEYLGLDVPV
T2 sequence (P00533 25-1210): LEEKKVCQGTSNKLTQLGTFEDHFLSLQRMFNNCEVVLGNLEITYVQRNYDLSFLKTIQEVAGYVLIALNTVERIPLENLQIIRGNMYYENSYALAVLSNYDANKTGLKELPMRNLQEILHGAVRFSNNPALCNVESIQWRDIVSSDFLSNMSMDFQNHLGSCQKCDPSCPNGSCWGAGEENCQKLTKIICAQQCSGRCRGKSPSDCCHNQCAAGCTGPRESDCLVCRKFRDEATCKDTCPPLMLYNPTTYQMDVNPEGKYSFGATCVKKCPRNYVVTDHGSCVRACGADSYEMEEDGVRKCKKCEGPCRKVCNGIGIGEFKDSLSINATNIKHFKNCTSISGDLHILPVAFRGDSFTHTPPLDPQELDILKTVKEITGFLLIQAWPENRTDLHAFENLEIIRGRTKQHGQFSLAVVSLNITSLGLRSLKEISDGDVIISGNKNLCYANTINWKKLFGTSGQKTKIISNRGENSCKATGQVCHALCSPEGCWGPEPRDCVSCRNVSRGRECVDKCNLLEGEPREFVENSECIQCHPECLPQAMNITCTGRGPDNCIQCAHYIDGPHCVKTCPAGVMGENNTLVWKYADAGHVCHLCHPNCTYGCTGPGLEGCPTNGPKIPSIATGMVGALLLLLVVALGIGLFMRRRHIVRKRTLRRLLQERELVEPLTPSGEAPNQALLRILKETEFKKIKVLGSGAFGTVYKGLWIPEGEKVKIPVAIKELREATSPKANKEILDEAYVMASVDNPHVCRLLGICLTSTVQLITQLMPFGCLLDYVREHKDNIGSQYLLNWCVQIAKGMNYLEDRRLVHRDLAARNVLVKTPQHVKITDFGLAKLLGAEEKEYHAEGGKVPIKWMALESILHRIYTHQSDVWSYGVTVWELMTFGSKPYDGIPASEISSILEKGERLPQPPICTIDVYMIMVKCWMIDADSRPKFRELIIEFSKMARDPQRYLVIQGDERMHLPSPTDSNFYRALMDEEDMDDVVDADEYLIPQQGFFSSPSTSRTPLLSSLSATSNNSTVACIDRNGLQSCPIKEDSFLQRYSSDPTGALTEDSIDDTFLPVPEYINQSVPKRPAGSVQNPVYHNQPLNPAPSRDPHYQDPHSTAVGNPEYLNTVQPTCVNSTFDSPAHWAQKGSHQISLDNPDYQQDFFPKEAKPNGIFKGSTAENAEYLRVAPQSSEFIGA

For the compound `C=CC(=O)N1CCN2C[C@@H]1COc1c2ccc2ncnc(Nc3ccc(Oc4ccn5ncnc5c4)c(C)c3)c12` [Compound 25, 1-((3R)-13-((4-([1,2,4]triazolo[1,5-a]pyridin-7-yloxy)-3-methylphenyl)amino)-2,3,5,6-tetrahydro-4H-3,7-methano[1,4,7]oxadiazonino[2,3-f]quinazolin-4-yl)prop-2-en-1-one], on Ba/F3 ERBB2 YVMA, the GI50 came out at 15.5 nM. Further, the IC50 came to 11.5 nM in test [1] and 1580 nM in test [2].
On the same counts, the results for `Cc1cc(Nc2ncnc3ccc4c(c23)OC[C@@H]2CN4CCN2C(=O)/C=C/CN(C)C)ccc1Oc1ccn2ncnc2c1` [Compound 26, (E)-1-((3S)-13-((4-([1,2,4]triazolo[1,5-a]pyridin-7-yloxy)-3-methylphenyl)amino)-2,3,5,6-tetrahydro-4H-3,7-methano[1,4,7]oxadiazonino[2,3-f]quinazolin-4-yl)-4-(dimethylamino)but-2-en-1-one] are > 500 nM, 434 nM and > 10000 nM.
As to `Cc1cc(Nc2ncnc3ccc4c(c23)OC[C@H]2CN4CCN2C(=O)/C=C/CN(C)C)ccc1Oc1ccn2ncnc2c1` [Compound 27, (E)-1-((3R)-13-((4-([1,2,4]triazolo[1,5-a]pyridin-7-yloxy)-3-methylphenyl)amino)-2,3,5,6-tetrahydro-4H-3,7-methano[1,4,7]oxadiazonino[2,3-f]quinazolin-4-yl)-4-(dimethylamino)but-2-en-1-one], the GI50 on Ba/F3 ERBB2 YVMA worked out at 7.69 nM. Further, the results for the half-maximal inhibitory concentration (IC50) in test [1] and in test [2] were 8.75 nM and 189 nM, respectively.
The corresponding values for `C=CC(=O)N1CCN2C[C@H]1COc1c2ccc2ncnc(Nc3ccc(Oc4ccc5c(c4)ncn5C)c(C)c3)c12` [Compound 28, 1-((3S)-13-((3-methyl-4-((1-methyl-1H-benzo[d]imidazol-5-yl)oxy)phenyl)amino)-2,3,5,6-tetrahydro-4H-3,7-methano[1,4,7]oxadiazonino[2,3-f]quinazolin-4-yl)prop-2-en-1-one] are > 500 nM, 417 nM and > 10000 nM.
On to `C=CC(=O)N1CCN2C[C@@H]1COc1c2ccc2ncnc(Nc3ccc(Oc4ccc5c(c4)ncn5C)c(C)c3)c12` [Compound 29, 1-((3R)-13-((3-methyl-4-((1-methyl-1H-benzo[d]imidazol-5-yl)oxy)phenyl)amino)-2,3,5,6-tetrahydro-4H-3,7-methano[1,4,7]oxadiazonino[2,3-f]quinazolin-4-yl)prop-2-en-1-one], for which the GI50 on Ba/F3 ERBB2 YVMA was determined as 23.9 nM. Also, the half-maximal inhibitory concentration (IC50) was 30.7 nM in test [1] and 2930 nM in test [2].
On the same counts, the results for `Cc1cc(Nc2ncnc3ccc4c(c23)OC[C@@H]2CN4CCN2C(=O)/C=C/CN(C)C)ccc1Oc1ccc2c(c1)ncn2C` [Compound 30, (E)-4-(dimethylamino)-1-((3S)-13-((3-methyl-4-((1-methyl-1H-benzo[d]imidazol-5-yl)oxy)phenyl)amino)-2,3,5,6-tetrahydro-4H-3,7-methano[1,4,7]oxadiazonino[2,3-f]quinazolin-4-yl)but-2-en-1-one] are > 500 nM, 304 nM and > 10000 nM.
The corresponding values for `Cc1cc(Nc2ncnc3ccc4c(c23)OC[C@H]2CN4CCN2C(=O)/C=C/CN(C)C)ccc1Oc1ccc2c(c1)ncn2C` [Compound 31, (E)-4-(dimethylamino)-1-((3R)-13-((3-methyl-4-((1-methyl-1H-benzo[d]imidazol-5-yl)oxy)phenyl)amino)-2,3,5,6-tetrahydro-4H-3,7-methano[1,4,7]oxadiazonino[2,3-f]quinazolin-4-yl)but-2-en-1-one] are 12.6 nM, 19.9 nM and 246 nM.
The corresponding values for `CC#CC(=O)N1CCN2c3nc4c(Nc5ccc(Oc6ccn7ncnc7c6)c(C)c5)ncnc4cc3OC[C@@H]2C1` [Compound 32, (S)-1-(11-((4-([1,2,4]triazolo[1,5-a]pyridin-7-yloxy)-3-methylphenyl)amino)-1,2,4a,5-tetrahydropyrazino[1,2-d]pyrimido[4′,5′:5,6]pyrido[3,2-b][1,4]oxazin-3(4H)-yl)but-2-yn-1-one] are 18.3 nM, 51.4 nM and 4770 nM.
On to `Cc1cc(Nc2ncnc3cc4c(nc23)N2CCN(C)C[C@H]2CO4)ccc1Oc1ccn2ncnc2c1` [Compound 33, (S)—N-(4-([1,2,4]triazolo[1,5-a]pyridin-7-yloxy)-3-methylphenyl)-3-methyl-1,2,3,4,4a,5-hexahydropyrazino[1,2-d]pyrimido[4′,5′:5,6]pyrido[3,2-b][1,4]oxazin-11-amine], for which the GI50 at Ba/F3 ERBB2 YVMA is 271 nM. Further, the concentration for half-maximal inhibition (IC50) was 52.4 nM in test [1] and > 10000 nM in test [2].
On to `Cc1cc(Nc2ncnc3cc4c(nc23)N2CCNC[C@H]2CO4)ccc1Oc1ccn2ncnc2c1` [Compound 34, (S)—N-(4-([1,2,4]triazolo[1,5-a]pyridin-7-yloxy)-3-methylphenyl)-1,2,3,4,4a,5-hexahydropyrazino[1,2-d]pyrimido[4′,5′:5,6]pyrido[3,2-b][1,4]oxazin-11-amine], for which, at Ba/F3 ERBB2 YVMA, the GI50 is 474 nM. Moreover, the 50% inhibitory concentration (IC50) was 53.6 nM in test [1] and > 10000 nM in test [2].
On the same counts, the results for `Cc1cc(Nc2ncnc3cc4c(nc23)N2CCNC[C@@H]2CO4)ccc1Oc1ccn2ncnc2c1` [Compound 35, (R)—N-(4-([1,2,4]triazolo[1,5-a]pyridin-7-yloxy)-3-methylphenyl)-1,2,3,4,4a,5-hexahydropyrazino[1,2-d]pyrimido[4′,5′:5,6]pyrido[3,2-b][1,4]oxazin-11-amine] are > 500 nM, 127 nM and > 10000 nM.
On the same counts, the results for `Cc1cc(Nc2ncnc3ccc4c(c23)OC[C@@H]2CN4CCN2)ccc1Oc1ccn2ncnc2c1` [Compound 49, (3S)—N-(4-([1,2,4]triazolo[1,5-a]pyridin-7-yloxy)-3-methylphenyl)-3,4,5,6-tetrahydro-2H-3,7-methano[1,4,7]oxadiazonino[2,3-f]quinazolin-13-amine] are > 500 nM, 466 nM and > 10000 nM.
On the same counts, the results for `Cc1cc(Nc2ncnc3ccc4c(c23)OC[C@@H]2CN4CCN2C)ccc1Oc1ccn2ncnc2c1` [Compound 50, (3S)—N-(4-([1,2,4]triazolo[1,5-a]pyridin-7-yloxy)-3-methylphenyl)-4-methyl-3,4,5,6-tetrahydro-2H-3,7-methano[1,4,7]oxadiazonino[2,3-f]quinazolin-13-amine] are > 500 nM, 195 nM and > 10000 nM.
On to `Cc1cc(Nc2ncnc3ccc4c(c23)OC[C@H]2CN4CCN2)ccc1Oc1ccn2ncnc2c1` [Compound 51, (3R)—N-(4-([1,2,4]triazolo[1,5-a]pyridin-7-yloxy)-3-methylphenyl)-3,4,5,6-tetrahydro-2H-3,7-methano[1,4,7]oxadiazonino[2,3-f]quinazolin-13-amine], for which the GI50 on Ba/F3 ERBB2 YVMA is > 500 nM. For the same compound, the IC50 was 128 nM in test [1] and > 10000 nM in test [2].
On the same counts, the results for `Cc1cc(Nc2ncnc3ccc4c(c23)OC[C@H]2CN4CCN2C)ccc1Oc1ccn2ncnc2c1` [Compound 52, (3R)—N-(4-([1,2,4]triazolo[1,5-a]pyridin-7-yloxy)-3-methylphenyl)-4-methyl-3,4,5,6-tetrahydro-2H-3,7-methano[1,4,7]oxadiazonino[2,3-f]quinazolin-13-amine] are > 500 nM, 219 nM and > 10000 nM.

The values are drawn from patent publication US20260078135A1, “POLYCYCLIC QUINAZOLINES FOR INHIBITION OF ERBB2” (Enliven Inc., priority 2022, published 2026).
